Test [1] deals with T1, Akt1 (Homo sapiens, UniProt P31749).
T1 construct: unspecified tag, removed (detagged) (cleaved yes); purchased SignalChem and Proteros (Akt1); Merck Millipore (PDK1) 14-452 (PDK1); none given for Akt1
In words: Akt activation assay (PDK1-mediated activation, LANCE Ultra crosstide TR-FRET), Akt1. The format is biochemical. As to conditions: read-out: Biological Assay 1 IC50 (nM) Akt1. As to the method: (§1) Biological Assay 1: Akt Activation Assay
(§2) Addition of a Europium-labelled antibody specific to the phosphopeptide allows energy transfer from the Europium donor to the Ultra Ulight™ acceptor if close enough in proximity.
(§3) Full length active His6-tagged PDK1 was obtained from Merck Millipore (14-452).
(§4) 1× assay buffer (AB): 50 mM HEPES pH 7.5, 1 mM EGTA, 10 mM MgCl2, 0.01% Tween. Immediately before use, DTT to a concentration of 2 mM was added.
(§5) To prepare lipid vesicles: 1 mg/ml PtdIns(3,4,5)P3 solution (in 10 mM HEPES 7.5) was added to 16.7 mg/ml DOPS/DOPC mixture (in 10 mM HEPES pH 7.5) in a ratio of 1:8.3. MilliQ water was added to the solution to generate concentrations of 400 μM DOPS, 400 μM DOPC and 40 μM PtdIns(3,4,5)P3. The mixture was subjected to 5× freeze/thaw cycles and aliquots stored at −20° C.
(§6) 5 μL enzyme in 1×AB was incubated with 2.5 μL test compound. To start the reaction 2.5 μL reaction mix was added which consisted of PDK1, lipid preparations, crosstide and ATP in 1×AB. Final assay concentrations were as follows: 1% DMSO, 5 nM SignalChem Akt1/15 nM SignalChem Akt2/3 nM Signalchem Akt3/5 nM Proteros Akt1/5 nM proteros Akt2/5 nM Proteros Akt3, 5 nM PDK1, 5.5 μM DOPS, 5.5 μM DOPC, 0.55 μM PtdIns(3,4,5)P3, 100 μM ATP, 100 nM LANCE® Ultra Ulight™-Crosstide. After 30 min, the reaction was stopped using 5 μL 40 μM EDTA in 1× Detection buffer for 5 min. For detection, 5 μL 8 nM LANCE® Ultra Europium-anti-phospho-Crosstide antibody in 1× Detection buffer was added to each well and incubated for 1 h. Plates read with the EnVision® Multilabel Plate Reader, excitation at 320 nm and emission at 665 nm and 615 nm. Compound IC50 was determined using a 4-parameter equation.

In test [2] the target is T2, Akt2 (Homo sapiens, UniProt P31751).
T2 construct: unspecified tag, removed (detagged) (cleaved yes); purchased SignalChem and Proteros (Akt2); Merck Millipore (PDK1) 14-452 (PDK1); none given for Akt2
In words: Akt activation assay (PDK1-mediated activation, LANCE Ultra crosstide TR-FRET), Akt2. The format is biochemical. The settings on record: read-out: Biological Assay 1 IC50 (nM) Akt2. As to the method:
as §1, §2, §3, §4, §5, §6

Test [3] addresses T3, Akt3 (Homo sapiens, UniProt Q9Y243).
T3 construct: unspecified tag, removed (detagged) (cleaved yes); purchased SignalChem and Proteros (Akt3); Merck Millipore (PDK1) 14-452 (PDK1); none given for Akt3
In words: Akt activation assay (PDK1-mediated activation, LANCE Ultra crosstide TR-FRET), Akt3. The class given is biochemical. The settings on record: read-out: Biological Assay 1 IC50 (nM) Akt3. As to the method: as §1, §2, §3, §4, §5, §6

The target in test [4] is T4, p-Akt2 in WM115 cells (Homo sapiens, UniProt P31751).
T4 construct: SureFire assays to detect cellular p-Akt1, p-Akt2 and p-Akt3 levels in WM115 cells (Akt2/3) and LNCaP cells (Akt1); endogenous in cells; host or cells: WM115 (ECACC 91061232), insulin-stimulated
In words: Phospho-Akt cellular SureFire assay, p-Akt2 in WM115 cells. The format is cell-based. The settings on record: insulin stimulated, read-out: Biological Assay 2 IC50 (nM) Akt2 WM115. From the text:
(§7) Biological Assay 2: Phospho-Akt (p-Akt) Cellular SureFire Assays
(§8) The following describes SureFire assays to detect cellular p-Akt1, p-Akt2 and p-Akt3 levels in WM115 cells (Akt2/3) and LNCaP cells (Akt1). In the case of Akt2 and Akt3, Streptavidin-coated donor beads capture a biotinylated anti-mouse antibody that in turn recognises a mouse total Akt antibody which is specific to each isoform. The protein A-conjugated acceptor beads capture an antibody that recognises the phosphoprotein. Similarly in the Akt1 kit, the donor and acceptor beads are used to capture each antibody pair consisting of an antibody that specifically recognises Akt1 as well as an antibody that recognises the phosphoprotein. In each case, close proximity of the beads allows energy transfer from donor to acceptor.
(§9) Custom kit from TGR/Perkin Elmer for Akt2/3 containing anti-(pThr308)Akt antibody and biotinylated anti-mouse capture antibody.
Total Akt2 antibody (NEB UK, 5239)
(§10) WM115 cells (ECACC, 91061232) cultured in MEM culture media (M2279) supplemented with 2 mM L-glutamine (G7513), 1% non-essential amino acids (M7145), 1% sodium pyruvate (S8636) and 10% FBS (F0804)
(§11) Cell treatment: 1×10^5 WM115 cells or 5×10^4 LNCaP cells were seeded into each well of a 96 well poly-D-Lysine coated tissue culture plate and incubated overnight at 37° C.+5% CO2. Media was removed from cells and replaced with assay buffer consisting of the full culture media described above but with 0.1% FBS instead of 10% FBS. Only WM115 cells were stimulated at 37° C.+5% CO2 for 10 min with 5 μL insulin at a final concentration of 100 nM. Cells were incubated with 5 μL of test compound at a final DMSO concentration of 0.3% for 15 min at 37° C.+5% CO2. Cell lysis was carried out according to kit instructions.
(§12) Assay format (performed in subdued lighting): 4 μL cell lysate and 5 μL reaction buffer were incubated together in the dark at room temperature for 2 h. Reaction buffer was supplemented with a 1/5 dilution of activation buffer, a 1/50 dilution of acceptor beads and in the case of the custom kits, antibodies were added at dilutions of 1/20,000 for Akt2 and 1/2,000 for Akt3.
(§13) 2 μL dilution buffer, supplemented with a 1/20 dilution of donor beads was added to each well and incubated for a further 2 h. Plates were read with the EnVision® Multilabel Plate Reader and using the AlphaScreen settings. Compound IC50 was determined using a 4-parameter equation.

The target of test [5] is T5, p-Akt3 in WM115 cells (Homo sapiens, UniProt Q9Y243).
T5 construct: SureFire assays to detect cellular p-Akt1, p-Akt2 and p-Akt3 levels in WM115 cells (Akt2/3) and LNCaP cells (Akt1); endogenous in cells; host or cells: WM115 (ECACC 91061232), insulin-stimulated
The experiment in a line: Phospho-Akt cellular SureFire assay, p-Akt3 in WM115 cells. The settings on record: insulin stimulated, read-out: Biological Assay 2 IC50 (nM) Akt3 WM115. The class given is cell-based.
Text: as §7, §8, §9
Total Akt3 antibody (R&D Systems MAB 1463)
as §10, §11, §12, §13

T3 sequence (Q9Y243 whole entry): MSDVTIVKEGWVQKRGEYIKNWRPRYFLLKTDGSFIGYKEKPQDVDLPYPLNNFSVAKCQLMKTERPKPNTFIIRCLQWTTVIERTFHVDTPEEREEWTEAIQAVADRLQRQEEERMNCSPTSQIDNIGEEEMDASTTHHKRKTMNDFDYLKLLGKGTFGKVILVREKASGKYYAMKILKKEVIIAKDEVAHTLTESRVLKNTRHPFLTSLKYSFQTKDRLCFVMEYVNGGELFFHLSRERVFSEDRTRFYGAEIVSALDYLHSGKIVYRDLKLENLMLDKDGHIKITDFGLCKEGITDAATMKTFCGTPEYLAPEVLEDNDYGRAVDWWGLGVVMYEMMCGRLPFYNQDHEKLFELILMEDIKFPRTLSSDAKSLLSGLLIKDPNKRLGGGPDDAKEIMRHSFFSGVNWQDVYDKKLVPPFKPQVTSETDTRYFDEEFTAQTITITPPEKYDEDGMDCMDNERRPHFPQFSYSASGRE
T5 sequence (Q9Y243 whole entry): as above
T4 sequence (P31751 whole entry): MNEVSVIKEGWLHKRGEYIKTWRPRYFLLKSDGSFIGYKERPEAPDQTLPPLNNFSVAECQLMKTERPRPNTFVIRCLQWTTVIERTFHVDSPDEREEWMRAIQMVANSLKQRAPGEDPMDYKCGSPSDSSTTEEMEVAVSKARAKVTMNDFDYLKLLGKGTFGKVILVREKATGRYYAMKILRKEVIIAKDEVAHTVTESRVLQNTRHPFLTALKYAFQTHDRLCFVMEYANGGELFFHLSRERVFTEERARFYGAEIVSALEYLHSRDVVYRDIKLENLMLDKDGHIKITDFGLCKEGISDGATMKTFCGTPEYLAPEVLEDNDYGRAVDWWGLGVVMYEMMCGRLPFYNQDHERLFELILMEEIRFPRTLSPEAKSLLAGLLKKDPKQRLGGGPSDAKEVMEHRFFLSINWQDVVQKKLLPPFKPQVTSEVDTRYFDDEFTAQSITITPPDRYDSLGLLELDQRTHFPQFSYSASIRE
T2 sequence (P31751 whole entry): as above
T1 sequence (P31749 whole entry): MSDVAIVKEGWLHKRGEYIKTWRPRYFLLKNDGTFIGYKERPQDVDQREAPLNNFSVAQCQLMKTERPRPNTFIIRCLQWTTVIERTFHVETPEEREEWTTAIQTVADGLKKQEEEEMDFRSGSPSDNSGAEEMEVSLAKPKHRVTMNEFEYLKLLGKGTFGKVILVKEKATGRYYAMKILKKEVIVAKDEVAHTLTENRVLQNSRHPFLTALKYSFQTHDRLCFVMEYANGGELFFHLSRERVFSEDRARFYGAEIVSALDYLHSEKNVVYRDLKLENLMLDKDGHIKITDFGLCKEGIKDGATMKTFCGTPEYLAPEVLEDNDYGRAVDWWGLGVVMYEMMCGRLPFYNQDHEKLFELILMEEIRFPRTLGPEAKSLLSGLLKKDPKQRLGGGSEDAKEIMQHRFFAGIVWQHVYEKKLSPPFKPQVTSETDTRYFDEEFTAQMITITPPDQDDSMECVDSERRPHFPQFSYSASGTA

With `CC(=O)N(C)[C@H]1CC[C@H](CC(=O)Nc2cnc(-c3ccc(C4(N)CC(F)(F)C4)cc3)c(-c3ccccc3)c2)CC1` [Example 5], the IC50 in test [1] turned out to be 3900 nM; in test [2], 800 nM; in test [3], 110 nM; in test [4], 3000 nM; in test [5], 61 nM.
Turning to `CC(=O)N(C)[C@H]1CC[C@H](CC(=O)Nc2cnc(-c3ccc(C4(N)CC4)cc3)c(-c3ccccc3)c2)CC1` [Example 12, N-(6-(4-(1-aminocyclopropyl)phenyl)-5-phenylpyridin-3-yl)-2-(trans-4-(N-methylacetamido)cyclohexyl)acetamide], the IC50 in test [2] was 1000 nM; in test [3], 84 nM; in test [4], 2300 nM; in test [5], 220 nM.
As for `COC(=O)N(C)[C@H]1CC[C@H](CC(=O)Nc2cc(-c3ccsc3)c(-c3ccc([C@]4(N)C[C@](C)(O)C4)cc3)cn2)CC1` [Example 89, Methyl (trans-4-(2-((5-(4-(trans-1-amino-3-hydroxy-3-methylcyclobutyl)phenyl)-4-(thiophen-3-yl)pyridin-2-yl)amino)-2-oxoethyl)cyclohexyl)(methyl)carbamate], the IC50 in test [4] was determined as 3000 nM; in test [5], 57 nM.
As to `CCC(=O)N(C)[C@H]1CC[C@H](CC(=O)Nc2cnc(-c3ccc(C4(N)CC4)c(F)c3)c(-c3ccccc3)c2)CC1` [Example 90, N-(trans-4-(2-((6-(4-(1-aminocyclopropyl)-3-fluorophenyl)-5-phenylpyridin-3-yl)amino)-2-oxoethyl)cyclohexyl)-N-methylpropionamide], the IC50 in test [2] amounted to 2500 nM; in test [3], 120 nM; in test [4], 6500 nM; in test [5], 170 nM.
Turning to `COC(=O)N(C)[C@H]1CC[C@H](CC(=O)Nc2cc(-c3ccccc3F)c(-c3ccc([C@]4(N)C[C@](C)(O)C4)cc3)cn2)CC1` [Example 96, Methyl (trans-4-(2-((5-(4-(trans-1-amino-3-hydroxy-3-methylcyclobutyl)phenyl)-4-(2-fluorophenyl)pyridin-2-yl)amino)-2-oxoethyl)cyclohexyl)(methyl)carbamate], the IC50 in test [2] was 140 nM; in test [3], 18 nM; in test [4], 1300 nM; in test [5], 51 nM.
As to `CCN(C(C)=O)[C@H]1CC[C@H](CC(=O)Nc2cc(-c3ccccc3)c(-c3ccc([C@]4(N)C[C@](C)(O)C4)cc3)cn2)CC1` [Example 108, N-(5-(4-(trans-1-amino-3-hydroxy-3-methylcyclobutyl)phenyl)-4-phenylpyridin-2-yl)-2-(trans-4-(N-ethylacetamido)cyclohexyl)acetamide], the IC50 in test [2] was found to be 220 nM; in test [3], 10 nM; in test [4] it was 670 nM; in test [5] it was 16 nM.
Regarding `COC(=O)N(C)C1CCC(CC(=O)Nc2cnc(-c3ccc(C4(N)CC(F)C4)cc3)c(-c3ccsc3)c2)CC1` (stereo not drawn) [Example A66, Methyl (trans-4-(2-((6-(4-(trans-1-amino-3-fluorocyclobutyl)phenyl)-5-(thiophen-3-yl)pyridin-3-yl)amino)-2-oxoethyl)cyclohexyl)(methyl)carbamate], the IC50 came out at 1100 nM in test [2], 44 nM in test [3], 10000 nM in test [4] and 420 nM in test [5].
Regarding `CC(=O)N(C)[C@H]1CC[C@H](CC(=O)Nc2cc(-c3ccsc3)c(-c3ccc(C4(N)CCC4)cc3)nn2)CC1` [Example A97, N-(6-(4-(1-aminocyclobutyl)phenyl)-5-(thiophen-3-yl)pyridazin-3-yl)-2-(trans-4-(N-methylacetamido)cyclohexyl)acetamide], the IC50 came out at 430 nM in test [2], 9 nM in test [3], 3200 nM in test [4] and 41 nM in test [5].

The record behind these values is patent US10336702B2, “Pharmaceutically active compounds” (BERGENBIO ASA, priority 2015, dated 2019).
